# Assay results taken from publication PMC4631180 (British Journal of Clinical Pharmacology, 2015).
# “Also recorded” adds a separate entry of the source. Structures can show the parent of a compound that is named as a salt. Where two headings read alike, the source gives them in different places. Marks after values point to notes of the source that are not given here.
# How the values were obtained:
# [1] = system: acetaminophen sulfate formation (sulfation); test: Inhibition of acetaminophen sulfate formation in pooled human hepatic S9; assay type: in vitro ADME; conditions: both, pooled human hepatic S9, probe acetaminophen (2 mM)
# [2] = system: acetaminophen glucuronide formation (pooled human hepatic S9); test: Inhibition of acetaminophen glucuronide formation in pooled human hepatic S9; assay type: in vitro ADME; conditions: pooled human hepatic S9, acetaminophen 2 mM; favipiravir up to 3000 µM, T-705M1 3–300 µM
# [3] = assay type: in vivo, human; conditions: for Truncated AUC: 0–12 h; for Total AUC: extrapolated to infinity; for Cmax ratio (Day2) / (Day1), arithmetic mean / Cmax ratio (Day2) / (Day1), geometric mean / Cmax ratio (Day6) / (Day1), arithmetic mean / Cmax ratio (Day6) / (Day1), geometric mean / Total AUC ratio (Day2) / (Day1), arithmetic mean / Total AUC ratio (Day2) / (Day1), geometric mean / Total AUC ratio (Day6) / (Day1), arithmetic mean / Total AUC ratio (Day6) / (Day1), geometric mean / Truncated AUC ratio (Day2) / (Day1), arithmetic mean / Truncated AUC ratio (Day2) / (Day1), geometric mean / Truncated AUC ratio (Day6) / (Day1), arithmetic mean / Truncated AUC ratio (Day6) / (Day1), geometric mean: favipiravir co-administration vs control; for half-life: both, human, plasma, oral, t½
# [4] = assay type: in vivo, human
# [5] = Day 1, acetaminophen alone (control), mean (± SE), n = 28
# [6] = Day 2, + acute favipiravir, mean (± SE), n = 28
# [7] = Day 6, + extended favipiravir, mean (± SE), n = 28
# [8] = 650 mg, Day 1, acetaminophen alone (control), mean (± SE), n = 28
SMILES,Inhibition of acetaminophen glucuronide formation [2],"Total AUC [3, 6]","Total AUC [3, 7]","Cmax ratio (Day2) / (Day1), arithmetic mean [3]","Cmax ratio (Day2) / (Day1), geometric mean [3]","Cmax ratio (Day6) / (Day1), arithmetic mean [3]","Cmax ratio (Day6) / (Day1), geometric mean [3]","Total AUC ratio (Day2) / (Day1), arithmetic mean [3]","Total AUC ratio (Day2) / (Day1), geometric mean [3]","Total AUC ratio (Day6) / (Day1), arithmetic mean [3]","Total AUC ratio (Day6) / (Day1), geometric mean [3]","Truncated AUC ratio (Day2) / (Day1), arithmetic mean [3]","Truncated AUC ratio (Day2) / (Day1), geometric mean [3]","Truncated AUC ratio (Day6) / (Day1), arithmetic mean [3]","Truncated AUC ratio (Day6) / (Day1), geometric mean [3]","half-life [3, 8] [min]","half-life [3, 6] [min]",further results
"NC(=O)c1nc(F)c[nH]c1=O [Favipiravir, reference compound]",did not inhibit,,,,,,,,,,,,,,,,,IC50 at 15 min [1]: 150 µM
CC(=O)Nc1ccc(OS(=O)(=O)O)cc1 [Acetaminophen sulfate],,21.2 (± 2.1) µg ml^–1 h,20.1 (± 2.3) µg ml^–1 h,0.52*,0.51,0.52*,0.47,0.84*,0.8,0.81,0.72,0.71*,0.7,0.65*,0.6,,,"Cmax ([3]; Day 1, acetaminophen 650 mg oral alone (control), mean (± SE), n = 28): 4.8 (± 0.4) µg ml^–1; tmax ([3]; Day 1, acetaminophen 650 mg oral alone (control), n = 28): 1.00 (± 0.33) h; Truncated AUC [3, 5]: 22.4 (± 1.7) µg ml^–1 h; t½ [3, 5]: 3.4 (± 0.1) h; Truncated AUC [3, 6]: 16.0 (± 1.3) µg ml^–1 h; t½ [3, 6]: 5.5 (± 0.6) h; tmax ([3]; Day 2, acetaminophen 650 mg oral + acute favipiravir, n = 28): 1.51 (± 0.1) h; Truncated AUC [3, 7]: 14.6 (± 1.6) µg ml^–1 h; t½ [3, 7]: 5.3 (± 0.4) h; tmax ([3]; Day 6, acetaminophen 650 mg oral + extended favipiravir, n = 28): 1.27 (± 0.09) h; Projected total urinary excretion ([4]; Day 1, acetaminophen 650 mg alone (control), mean (± SE), n = 28): 22 (± 2) % of dose"
"CC(=O)Nc1ccc(O)cc1 [Acetaminophen, reference compound]",,39.3 (± 3.1) µg ml^–1 h,37.4 (± 2.5) µg ml^–1 h,1.07,1.03,1.17,1.08,1.20*,1.17,1.19*,1.14,1.19*,1.17,1.19*,1.14,168,180,Effect of favipiravir co-administration on Cmax ([3]; acute (day 2) and extended (day 6) favipiravir vs day 1): not significantly changed; also recorded: no significant effect; Dose excreted in urine as intact acetaminophen ([4]; on average): less than 10 % of the dose
CC(=O)Nc1ccc(O[C@@H]2O[C@H](C(=O)O)[C@@H](O)[C@H](O)[C@H]2O)cc1 [Acetaminophen glucuronide],,99.3 (± 5.1) µg ml^–1 h,109.0 (± 7.1) µg ml^–1 h,1.19*,1.18,1.26*,1.22,1.23*,1.22,1.35*,1.32,1.23*,1.21,1.34*,1.31,198,210,
NC(=O)c1nc(F)c(=O)[nH]c1O [T‐705M1],did not inhibit; also recorded: no effect,,,,,,,,,,,,,,,,,
